Tested on: NPC
Test: GFP levels in NPC measured by flow cytometry, KC2 and DLin-MC3-DMA substituted as ionizable lipid
Format: cell-based, human
Conditions: 48 H, ionizable lipid in the Lipid Mix K, over the control Lipid Mix A (FIG. 11)
Excerpt: Two commonly used ionizable lipids, KC2 and DLin-MC3-DMA, were substituted for the ionizable lipid component for Lipid Mixes A and K. NPC were transfected as specified above, and the results at 48 H for GFP Median Fluorescent Intensity via flow cytometry are shown in FIG. 11. Both KC2 and DLin-MC3-DMA (MC3 in the graph) were effective in the Lipid Mix K to enhance GFP expression over the control Lipid Mix A. PNI-IL-1 is 1,17-bis(2-octylcyclopropyl)heptadecan-9-yl 4-(dimethylamino)butanoate HCl).

Structure (SMILES): CCCCC/C=C\C/C=C\CCCCCCCCC1(CCCCCCCC/C=C\C/C=C\CCCCC)OCC(CCN(C)C)O1 (centres unmarked) [KC2, 2,2-dilinoleyl-4-(2-dimethylaminoethyl)-[1,3]-dioxolane]
- GFP Median Fluorescent Intensity via flow cytometry: effective

Structure (SMILES): CCCCCC=CCC=CCCCCCCCCC(CCCCCCCCC=CCC=CCCCCC)OC(=O)CCCN(C)C (centres unmarked) [DLin-MC3-DMA, heptatriaconta-6,9,28,31-tetraen-19-yl 4-(dimethylamino)butanoate]
- GFP Median Fluorescent Intensity via flow cytometry: effective

Source: US11679159B2, “Compositions for transfecting resistant cell types” (Precision Nanosystems ULC, priority 2018, dated 2023)
